Laboratory results published in patent publication US8889126B2, “Methods and compositions for treating neuropathies” (Washington University, priority 2004, dated 2014).
Entries after “also recorded” stand apart in the source; their conditions may differ. Where two headings read alike, the source gives them in different places.

How the values were obtained:
DRG explant neurons = experiment: in vitro Wallerian degeneration assay: DRG explant cultures, axonal transection by removal of neuronal cell bodies; type: cell-based, mouse; conditions: for effect on NAD-dependent axonal protection (NDAP): neurons cultured in 1 mM NAD, Sirtinol 100 μM, 3AB 20 mM or lentiviral siRNA, assessed 12 to 72 hr after transection; for increase in intact neurites at 48 hours after transection: 1 mM exogenous application; for neurite protection from degeneration: 1 mM in culture media for 24 hours before neurite transection
Description: To identify the mechanism of delayed axonal degeneration mediated by the Wld^s protein, we employed an in-vitro Wallerian degeneration model. Primary DRG explant neurons were infected with lentivirus expressing the appropriate proteins, and axons were injured by either removal of the neuronal cell body (transection) or growth in vincristine (toxic).
Mouse DRG explants from E12.5 embryos were cultured in the presence of 1 nM nerve growth factor. Non-neuronal cells were removed from the cultures by adding 5-fluorouracil to the culture medium. Transection of neurites was performed at 10-20 DIV using an 18-gauge needle to remove the neuronal cell bodies. Incubation with β-nicotinamide adenine dinucleotide (Sigma) or Sirtinol (Calbiochem) was performed using conditions indicated in the text or figures.
Lentiviral expression vectors were generated using HEK293T cells as described above. For confirmation of lentivirus-derived protein expression, HEK293T cells were infected with lentivirus and cells were lysed 3 days after infection. These lysates were analyzed by immunoblot to using anti-His tag monoclonal antibody (Qiagen) to detect expression of the respective hexahistidine-tagged proteins. Lentiviral infection of DRG neurons was performed by incubating ˜10^6-10^7 pfu/ml virus with the DRG explant for 24 h beginning 3-7 days prior to axonal transection. The infected neurons were examined under an inverted fluorescent microscope to insure detectable lentivirus-mediated transgene expression in >95% of neurons.
Quantitative analysis of axonal degeneration was performed as previously described (Zhai, et al., Neuron 39:217-25, 2003). Briefly, the cultures were examined using phase contrast microscopy at the indicated times. Axons with a fragmented, non-refractile appearance were designated as “degenerated.” At each time point, at least 200 singly distinguishable axons were blindly scored from several randomly taken images of each culture. Each condition was tested in triplicate explants in each experiment. Results were obtained from 2-4 independent experiments for each condition. Statistical analysis was performed by Student's T test. For calculations of neurite-covered area, digitally captured images from quadruplicate samples of two independent experiments were analyzed using analysis 3.1 software (Soft Imaging System, Lakewood, Colo.).
Cell culture, in vitro axotomy, and quantification of axonal degeneration. Mouse DRG explants from E12.5 embryos were cultured in the DMEM containing 10% FCS and 1 nM nerve growth factor. Non-neuronal cells were removed from the cultures by adding 5-fluorouracil to the culture media. Transection of neurites was performed at 14-21 DIV using an 18-gauge needle to remove the neuronal cell bodies. Lentiviral expression vectors were generated. Lentiviral infection was performed 3-7 days prior to axonal transection for 24 hr. Quantitative analysis of neurite degeneration was performed.

[1] = tested on: optic nerve (retinal ganglion cell axons); experiment: optic nerve transection after intravitreal injection of NAD biosynthetic substrates, neurofilament immunoreactivity by Western blotting; type: in vivo, rat; conditions: 24 hours before transection, 4 days after transection
Description: Administration of NAD biosynthetic substrates and optic Nerve transection. Nam, NMN, NmR, or NAD was dissolved in PBS at the concentration of 100 mM or 1 M. Each of 5 μl solution was injected into left intravitreal component under the anesthesia at a rate of […]. The left optic nerve was transected at 24 hours after intravitreal injection and optic nerve was recovered at indicated time. Optic nerve tissue was homogenized in 100 μl of a buffer containing 100 mM tris-HCl (pH 6.8), 1 SDS, and 1 mM DTT. Fifty μg of protein for each sample was analyzed by the Western blotting using anti-neurofilament antibody 2H3 (Developmental Studies Hybridoma Center) and peroxidase-conjugated secondary antibody (Jackson ImmunoResearch). The degeneration rate was calculated from the ratio of the neurofilament immunoreactivity of transected vs. contralateral nerves.
Transection of optic nerve is an in vivo model which can be used to investigate mechanisms leading to Wallerian degeneration and following retinal ganglion cell (RGC) death observed in human diseases such as glaucoma. In the C57BL/Wlds mouse strain, optic nerve degeneration during Wallerian degeneration after axotomy is dramatically slowed. In addition, intravitreal injection is used for screening of compounds that protect RGC axon from degeneration in vivo and thus we can asses the axon protective effect of each NAD biosynthetic substrates in vivo by intraocular injection of compounds including NAD, NMN, NmR, and Nam. […] We initially injected 5 μl of 100 mM or 1 M NAD solution into left intravitreal compartment. After 24 hours incubation, left optic nerve was transected and control (right) and axotomized (left) optic nerve were collected at 3, 4, and 5 days after transection. Neurofilament immunoreactivity from the axotomized optic nerve was measured and normalized against the value obtained from the right side of the optic nerve.
FIG. 9 illustrates optic nerve transection after intravitreal injection of NAD biosynthetic substrates. In these experiments, NAD biosynthetic substrate NAD, NMN, NmR, or Nam was injected into the intravitreal compartment of a left rat eye and allowed to incorporate in retinal ganglion cells for 24 hours. The left optic nerve was then transected by eye enucleation. The right and left optic nerves were collected at 4 days after transection and analyzed by Western blotting. Optic nerves transected from mice without any treatment prior to axotomy served as negative controls. FIG. 9 presents quantitative analysis data, displaying percentage of remaining neurofilament immunoreactivity from transected optic nerve relative to non-transected controls. Data is presented as percent remaining immunoreactivity±S.D.

Nrk2 = experiment: NAD synthesis enzyme mRNA levels (qRT-PCR) in cultured DRG neurons treated with rotenone; type: cell-based, rat; conditions: 0.1 μM and 1 μM rotenone, RNA collected at 24 hours
Description: Real-time quantitative reverse transcription-PCR analysis. All the surgical procedures were performed according to National Institute of Health guidelines for care and use of laboratory animals at Washington University. For the expression analysis following nerve injury, the sciatic nerves of a C57BL/6 mouse was transected and L4 to L5. DRGs were collected at indicated time points and pooled to extract RNA. […] Total RNAs from pooled tissue sources or DRG explant cultures were prepared. First-strand cDNA templates were prepared from 1 μg of each RNA using standard methods. Two independent cDNA syntheses were performed for each RNA sample. Quantitative reverse transcription (RT)-PCR was performed by monitoring in real-time the increase in fluorescence of the SYBR-GREEN dye on a TaqMan 7700 Sequence Detection System (Applied Biosystems).
To investigate the expression of mammalian NAD biosynthetic enzymes in the nervous system, we performed quantitative RT-PCR using RNA from mouse brain, retina, spinal code, and DRG at age of E14, P0, P7, P14 and P21. […] We also analyzed expression of NAD synthetic enzymes during the axonal degeneration caused by neurotoxin in cultured rat DRG neuron. […] FIG. 6B illustrates neurite degeneration introduced by incubation DRG in 1 or 0.1 μM rotenone for indicated time and NAD synthesis enzyme mRNA levels were determined by qRT-PCR as described in the text.

Row | Compound | neurofilament immunoreactivity of axotomized optic nerve, of non-axotomized optic nerve ([1]; 5 μl of 100 mM intravitreal) | protection against axonal degeneration (summary statement of the in vitro study) (DRG explant neurons) | increase in intact neurites at 48 hours after transection (DRG explant neurons) | neurite protection from degeneration (DRG explant neurons) | other results
1 | NC(=O)c1cccc(N)c1 [3AB, 3-aminobenzamide, reference compound] |  |  |  |  | effect on NAD-dependent axonal protection (NDAP) (DRG explant neurons): had no effect on NDAP
2 | NC(=O)c1ccc[n+]([C@@H]2O[C@H](COP(=O)([O-])OP(=O)(O)OC[C@H]3O[C@@H](n4cnc5c(N)ncnc54)[C@H](O)[C@@H]3O)[C@@H](O)[C@H]2O)c1 [NAD, β-nicotinamide adenine dinucleotide] | 78±22% |  |  |  | neurofilament immunoreactivity of axotomized optic nerve, of non-axotomized optic nerve ([1]; 5 μl of 1 M intravitreal): 77±27%
3 | NC(=O)c1ccc[n+]([C@@H]2O[C@H](COP(=O)([O-])O)[C@@H](O)[C@H]2O)c1 [NMN, nicotinamide mononucleotide] | 60±25% | have axon saving activity | comparable increase in intact neurites | successfully saved neurites from degeneration; also recorded: enough to protect axon from degeneration | neurite protection relative to exogenously applied NAD (quantitative analysis) (DRG explant neurons; 1 mM for 24 hours before transection): neurite protection to an extent similar to that achieved by exogenously applied NAD; protection against axonal degeneration (summary statement of the in vitro study) (DRG explant neurons; listed as nicotinamide mononucleotide): protected against axonal degeneration to a similar extent as did NAD
4 | O=C(O)c1cccnc1 [Na, nicotinic acid] |  | did not |  | failed to save neurites | 
5 | Nc1ncnc2c1ncn2[C@@H]1O[C@H](COP(=O)(O)OP(=O)(O)OC[C@H]2O[C@@H]([n+]3cccc(C(=O)O)c3)[C@H](O)[C@@H]2O)[C@@H](O)[C@H]1O [NaAD, nicotinic acid adenine dinucleotide] |  |  | less increase in intact neurites at 48 hours compared with NAD | slight protection | 
6 | O=C(O)c1ccc[n+]([C@@H]2O[C@H](COP(=O)(O)O)[C@@H](O)[C@H]2O)c1 [NaMN, nicotinate mononucleotide] |  | protected against axonal degeneration to a similar extent as did NAD | comparable increase in intact neurites | saved neurites as well as NAD | 
7 | NC(=O)c1cccnc1 [Nam, nicotinamide] | did not show any difference from the control animals | does not |  | had no effect | protection against axonal degeneration (summary statement of the in vitro study) (DRG explant neurons; listed as nicotinamide): did not
8 | NC(=O)c1ccc[n+]([C@@H]2O[C@H](CO)[C@@H](O)[C@H]2O)c1 [NmR, nicotinamide riboside] | 72±19% | have axon saving activity | comparable increase in intact neurites | saved neurites as well as NAD; also recorded: enough to protect axon from degeneration | protection against axonal degeneration (summary statement of the in vitro study) (DRG explant neurons; listed as nicotinamide riboside): protected against axonal degeneration to a similar extent as did NAD
9 | CC(NC(=O)c1ccccc1/N=C/c1c(O)ccc2ccccc12)c1ccccc1 (stereo not shown) [Sirtinol, reference compound] |  |  |  |  | effect on NAD-dependent axonal protection (NDAP) (DRG explant neurons): effectively blocked NDAP
10 | Oc1ccc(C=Cc2cc(O)cc(O)c2)cc1 [resveratrol, reference compound] |  |  |  |  | axonal degradation after axotomy (DRG explant neurons; 10~100 μM, treated prior to axotomy): decrease in axonal degradation that was comparable to that obtained using NAD
11 | C=C(C)[C@H]1Cc2c(ccc3c2O[C@@H]2COc4cc(OC)c(OC)cc4[C@@H]2C3=O)O1 [rotenone] |  |  |  |  | expression of Nrk2 (mRNA) (Nrk2): more than 6 folds
